In brackets after ≈: the same amount, converted by molar mass.
Tests used:
[1] = tested on: L1210 mouse lympheytic leukemia; test: Cell proliferation assay, L1210; assay type: cell-based; conditions: L 120 cells
Experimental: (§1) Early passage rat aortic smooth muscle cells (CV Therapeutics Cell repository) were seeded in 48 well dishes (Falcon, […]) at a density of 20,000 cells/ml of DME containing 5% heat inactivated bovine serum. The cells were incubated in a standard tissue culture incubator for 48 hr. The medium was aspirated and the wells were replenished with 0.2 ml of fresh medium. Compounds of this invention were added at concentrations ranging from 100 to 0.37 μg/ml. After 48 hr incubation, the medium was aspirated and the cultures were treated with 0.2 ml of saline 0.25 μl of phenozine methosulfate solution containing MTS (Cell Titer 96® Aqueous Non-radioactive cell proliferation assay kit, Catalog # G 5430, Promega, 2800 Woods Hollow Road, Madison, Wis. 53711-5399).
(§2) Similar assays were performed using the following cell lines; P388—mouse lymphoid neoplasm; L1210—mouse lympheytic leukemia; Caco2 human colon adenocarcinoma; MCF7 human breast adenocarcinoma; PupVSMC rat neonatal aortic smooth muscle cells; Ovcar human ovarian Carcinoma; Pancl human pancreatic adenocarcinoma; and HUVEC human umbilical cord endothelial cells.

[2] = tested on: Caco2 human colon adenocarcinoma; test: Cell proliferation assay, Caco2; assay type: cell-based; conditions: Caco2 cells
Experimental: as §1, §2

[3] = tested on: MCF7 human breast adenocarcinoma; test: Cell proliferation assay, MCF7; assay type: cell-based; conditions: MCF7 cells
Experimental: as §1, §2

[4] = tested on: Pancl human pancreatic adenocarcinoma; test: Cell proliferation assay, Panc1; assay type: cell-based; conditions: Panc 1 cells
Experimental: as §1, §2

[5] = tested on: Ovcar human ovarian Carcinoma; test: Cell proliferation assay, OvCar; assay type: cell-based; conditions: OvCar cells
Experimental: as §1, §2

[6] = tested on: PupVSMC rat neonatal aortic smooth muscle cells; test: Cell proliferation assay, PupVSMC; assay type: cell-based
Experimental: as §1, §2

rat carotid artery = test: Neointima formation following balloon angioplasty, rat carotid artery model; assay type: in vivo; conditions: 5 mg/mL, acute local delivery, 14 days after injury, treated vs untreated segment
Text: In this example, the left common carotid arteries of adult male rats (n=10 per experimental group) were surgically injured using a Fogarty arterial embolectomy catheter. Immediately after injury, the common carotid artery was bisected with a vascular clamp, thereby establishing an untreated and treated segment. A drug delivery catheter was then inserted into the distal half of the common carotid. After drug delivery, the catheter was removed and excess drug was washed out by removing the vascular clamp and re-establishing blood flow before closing the artery. The animals were allowed to recover for 14 days before harvesting the common carotid artery. The harvested tissue was sectioned and the neointimal area was digitized and measured with a computer planimetery system. For each animal, 15 measurements were averaged for the untreated segment and 15 for the treated. {2-[(2-aminoethyl)amino]-9-(methylethyl)purin-6-yl}[(4-chlorophenyl)methyl]amine was administered at a dose of 5 mg/mL reducing the neointimal area about 90% in comparison to the 6% reduction of saline alone.

[7] = tested on: P388 mouse lymphoid neoplasm; test: Cell proliferation assay, P388; assay type: cell-based; conditions: P388 cells
Experimental: as §1, §2

CC(C)n1cnc2c(NCc3ccc(-c4ccccc4)cc3)nc(N(CCO)CCO)nc21 [2-diethanolamino-6-(4-phenybenzylamino)-9-isopropyl Purine]
IC50 ([1]; Mus musculus, L1210, read-out: IC50 (μg/ml) for Inhibition of Cell Proliferation, L 120): 1 µg/mL (≈ 2.24 µM) | IC50 ([2]; Homo sapiens, Caco-2, read-out: IC50 (μg/ml) for Inhibition of Cell Proliferation, Caco2): 3.5 µg/mL (≈ 7.84 µM) | IC50 ([3]; Homo sapiens, read-out: IC50 (μg/ml) for Inhibition of Cell Proliferation, MCF7): 1 µg/mL (≈ 2.24 µM) | IC50 ([4]; Homo sapiens, read-out: IC50 (μg/ml) for Inhibition of Cell Proliferation, Panc 1): 1.3 µg/mL (≈ 2.91 µM) | IC50 ([5]; Homo sapiens, read-out: IC50 (μg/ml) for Inhibition of Cell Proliferation, OvCar): 2 µg/mL (≈ 4.48 µM)

CC(C)n1cnc2c(NCc3ccc(Cl)cc3)nc(NCCN)nc21 [{2-[(2-aminoethyl)amino]-9-(methylethyl)purin-6-yl}[(4-chlorophenyl)methyl]amine]
inhibitory activity, Pup VSMC ([6]; Rat neonatal aortic smooth muscle cells, Table 9, the values are: IC50): 0.1 µg/mL | reduction of the neointimal area (rat carotid artery): about 90%

CC(C)n1cnc2c(Nc3ccc(-c4ccccc4)cc3)nc(N(CCO)CCO)nc21 [2-diethanolamino-6-(4-phenylanilino)-9-isopropylpurine]
IC50 (μg/ml) for Inhibition of Cell Proliferation, P 388 [7]: 1.0 µg/mL | IC50 (μg/ml) for Inhibition of Cell Proliferation, L 120 [1]: 4.0 µg/mL | IC50 (μg/ml) for Inhibition of Cell Proliferation, Caco2 [2]: 0.5 µg/mL | IC50 (μg/ml) for Inhibition of Cell Proliferation, MCF7 [3]: 4.0 µg/mL | IC50 (μg/ml) for Inhibition of Cell Proliferation, Panc 1 [4]: 4.0 µg/mL | IC50 (μg/ml) for Inhibition of Cell Proliferation, OvCar [5]: 7.0 µg/mL | IC50 (μg/ml) for Inhibition of Cell Proliferation, PupVSMC ([6]; PupVSMC cells, Table 8): 1.0 µg/mL
